Assay results: PubChem BioAssay AID488890 (Southern Research Specialized Biocontainment Screening …, 2010)
pIC50: −log10 of the molar value. Inconclusive results are not listed. Calls of active or inactive are those of the source. The rule behind the calls is not given here.

test system: Mycobacterium tuberculosis non-replicating, growth inhibition; experiment: growth inhibition of non-replicating M. tuberculosis (AID 488890)

Row | SMILES | IC50 | pIC50
1 | Cc1ccc(C(=O)Oc2cccc(-n3cnnn3)c2)cc1 | 25.3 µM (inactive) | 
2 | CCOC(=O)c1ccc(N=CC2=C(O)CC(C)(C)CC2=O)cc1 |  | 5.41
3 | CCCCNC(=O)Nc1nnc(-c2ccc(Cl)cc2)o1 | 22.8 µM (inactive) | 
4 | O=C(COc1ccc(F)cc1)Nc1ccc2c(c1)OCCO2 |  | 5.20
5 | O=c1c2cc(Br)ccc2nc(-c2ccc([N+](=O)[O-])cc2)n1O |  | 6.00
6 | N/N=C(/Cc1nc2ccccc2[nH]1)c1ccc([N+](=O)[O-])cc1 |  | 5.97
7 | Cc1cc(NC(=O)COc2ccccc2)ccc1Cl |  | 5.27
8 | CCCOc1ccc(C(=O)NNC(=S)NC(=O)c2cccs2)cc1 |  | 6.34
9 | COc1cc(CNCCc2c[nH]c3ccccc23)ccc1OCc1ccc(F)cc1 | 11.5 µM (inactive) | 
10 | CSCCC(=O)N1CCCC(N2CCN(c3cccc(C(F)(F)F)c3)CC2)C1 (centres undefined) | 34.4 µM (inactive) | 
11 | N=c1oc2ccccc2cc1C(=O)NC1CCCCCC1 |  | 5.14
12 | COc1ccccc1-c1nnc(NC(=O)c2ccc3ncsc3c2)o1 | 22.5 µM (inactive) | 
13 | C/C(=N\O)c1cc(Cl)ccc1O |  | 5.62
14 | CCc1ccccc1NC(=O)C1COc2ccccc2O1 (centres undefined) | 19.8 µM (inactive) | 
15 | Cc1n[nH]c(C)c1CCOc1ccc(C(C)C)cc1 | 19.5 µM (inactive) | 
16 | Cc1ccc(CCC(=O)Nc2ccc([N+](=O)[O-])cc2)o1 | 15.1 µM (inactive) | 
17 | CC(=O)c1ccc(OC(=O)c2ccc(-n3nc(C)cc3C)cc2)cc1 |  | 5.61
18 | CCCCN(CC)S(=O)(=O)c1ccc(C(=O)Nc2nnc(-c3cccs3)o2)cc1 | 11.3 µM (inactive) | 
19 | COc1cc(/C=N/N(C)C)ccc1OC(=O)c1cccs1 |  | 5.08
20 | Cc1ccc(C)c(-c2nnc(NC(=O)COc3ccccc3)o2)c1 |  | 5.89

Row | SMILES | IC50 | pIC50
21 | COc1ccc2nc(C)cc(N/N=C/c3ccccc3)c2c1 |  | 5.59
22 | O=C(N/N=C(\c1ccccc1)c1ccccn1)c1cccc([N+](=O)[O-])c1 |  | 5.71
23 | O=C1/C(=C\c2ccco2)SC(=S)N1c1ccc(O)cc1 | 33.3 µM (inactive) | 
24 | O=C(CCCSc1nc2ccccc2s1)NCc1ccco1 | 10.7 µM (inactive) | 
25 | Cc1cc(C)nc(/N=C(\N)Nc2ccc(-c3ccccc3)cc2)n1 |  | 5.46
26 | COc1ccc2c([N+](=O)[O-])c(N3CCCC3)[nH]c2c1 | 36 µM (inactive) | 
27 | CCOC(=O)NC(=O)COC(=O)CCCSc1nc2ccccc2s1 | 10 µM (inactive) | 
28 | O=C(NNC(=O)c1ccccc1F)c1ccc(-c2ccc(Cl)cc2)o1 |  | 5.82
29 | Cc1ccc(-c2nnc(NC3CCCC3)s2)cc1 | 23.8 µM (inactive) | 
30 | O=C1Nc2ccccc2/C1=C/C(=O)c1cccs1 | 13.4 µM (inactive) | 
31 | COc1cccc(NC(=O)c2ccc(Cn3cc([N+](=O)[O-])cn3)o2)c1 |  | 5.12
32 | O=C(N/N=C/c1ccc([N+](=O)[O-])s1)c1ccncc1 |  | 5.75
33 | NCCNc1ccc([N+](=O)[O-])c2cccnc12 |  | 5.31
34 | COc1ccc(-c2cc(O)cc(O)c2)cc1 |  | 5.21
35 | CC(C)(C)NCC1(CO)SC(N)=NC1=O (centres undefined) | 15.5 µM (inactive) | 
36 | NC(=O)c1ccc(-c2ccc(Br)cc2)o1 |  | 5.71
37 | CN(C)CCC(=O)N1c2ccccc2Sc2ccc(Cl)cc21 | 21 µM (inactive) | 
38 | CN1CCN(C2Cc3ccccc3Sc3cc(C(F)(F)F)ccc32)CC1 (centres undefined) | 12 µM (inactive) | 
39 | CO/N=C/CC(=O)c1ccc(OC)cc1 | 30.5 µM (inactive) | 
40 | Cc1ccccc1C1=N/C(=C/c2cccnc2)C(=O)O1 | 19.9 µM (inactive) | 

Row | SMILES | IC50 | pIC50
41 | Cc1cc(C)n(CC(=O)N/N=C/c2ccc([N+](=O)[O-])s2)n1 | 24.4 µM (inactive) | 
42 | COc1cccc(COC(=O)CCNC(=O)c2ccc(Br)cc2)c1OC | 15.6 µM (inactive) | 
43 | CC(C)OC(=O)COc1ccc(-c2ccccc2)cc1 |  | 5.49
44 | O=C(CN1CCOCC1)N/N=C/c1ccc(-c2ccc(Br)cc2)o1 |  | 5.37
45 | CC(C)(O)C#Cc1ccc(C(=O)Nc2ccc3c(c2)OCO3)s1 |  | 5.22
46 | CCCCCn1c(=O)c(C(=O)Nc2nc3ccccc3[nH]2)c(O)c2ccccc21 |  | 5.72
47 | Cc1ccc2nc(NC(=O)COC(=O)c3ccc(Br)o3)sc2c1 | 35.8 µM (inactive) | 
48 | CCn1c(NC(=O)c2ccccc2)nc2ccccc21 |  | 5.35
49 | O=C(OCc1ccc([N+](=O)[O-])cc1)c1ccc2ccccc2n1 |  | 5.35
50 | COc1ccc(NC(=O)COc2ccc3c(c2)CCC3)cc1 |  | 5.34
51 | CCN1CCN(c2ccc(S(=O)(=O)N3CCCCC3)cc2NC(=O)c2ccc([N+](=O)[O-])o2)CC1 | 12.6 µM (inactive) | 
52 | Cc1cc(C=C2C(=O)NC(=S)NC2=O)c(C)n1C1CCCC1 |  | 5.41
53 | O=C(Nc1ncccc1O)c1ccc(Oc2ccccc2)cc1 | 20.5 µM (inactive) | 
54 | COc1ccc(-c2noc(-c3cc4ccccc4oc3=O)n2)cc1 |  | 5.30
55 | O=c1c2c(nc3c(-c4ccccc4)c[nH]n13)CCCC2 | 21.1 µM (inactive) | 
56 | Cc1oc(=O)c(NC(=O)c2ccccc2)cc1C(=O)c1ccccc1 |  | 5.27
57 | O=C(CCS(=O)(=O)c1ccc(Cl)cc1)Oc1ccc2c(c1)OCO2 | 22.7 µM (inactive) | 
58 | Cc1ccccc1OCCNc1cc(N2CC(C)NC(C)C2)ccc1[N+](=O)[O-] (centres undefined) | 10.8 µM (inactive) | 
59 | CCn1nnc(NC(=O)c2ccc([N+](=O)[O-])o2)n1 |  | 5.04
